In PMC11866022, “Long-Chain Cyclic Arylguanidines as Multifunctional Serotonin Receptor Ligands with Antiproliferative Activity” (ACS Omega, 2025):

Assays:
5-HT7 = target: T1, 5-HT7 (Homo sapiens, UniProt P34969); assay: Radioligand binding assay, 5-HT7 ([3H]-5-CT); conditions: Table 3, unit inferred; 0.8 nM [3H]-5-CT
T1 construct: expressed in transfected cells; host or cells: HEK293
Description: (§1) Their functional activity was also evaluated by assessing their ability to inhibit agonist-induced cAMP production in HEK293 cells (Table 3). Extended radioisotope tests were aimed at detecting potential affinity for other aminergic receptors, whose role in cancer treatment may be important. Functions were tested for all receptors. The essence of functional tests results from the fact that serotonin stimulates tumor progression. Therefore, the ligand should have the potential to reduce its concentration, i.e., act as an antagonist.[39]
(§2) The detailed procedure is presented in previous publications.[53] Assays were performed by incubating for 1 h at 37 °C (room temperature for 5-HT1A) in 200 μL volumes on 96-well plates. The reaction was terminated by rapid filtration using Unifilter plates, and radioactivity on the filters was measured with a PerkinElmer Microbeta plate reader. Radioligands used were:
(§3) Eight concentrations (10^–4 to 10^–11 M) were tested in triplicate for each compound. Inhibition constants (Ki) were calculated using the Cheng–Prusoff equation.[54] The results are expressed as the means of at least two independent experiments.

D2 = target: T2, D2 (Homo sapiens, UniProt P14416); assay: Radioligand binding assay, D2 ([3H]-raclopride); conditions: Table 3, unit inferred; 2.5 nM [3H]-raclopride
T2 construct: expressed in transfected cells; host or cells: HEK293
Description: as §1, §2
D2: 2.5 nM [^3H]-raclopride
as §3

5-HT6 = target: T3, 5-HT6 (Homo sapiens, UniProt P50406); assay: Radioligand binding assay, 5-HT6 ([3H]-LSD); conditions: HEK293 cell line with human 5-HT6R; 2 nM [3H]-LSD
T3 construct: expressed in transfected cells; host or cells: HEK293
Outline: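 Membranes from HEK293 cells expressing human 5-HT6R incubated 1 h at 37 °C with [3H]-LSD and eight compound concentrations (10^–4 to 10^–11 M) in triplicate; bound radioactivity counted after filtration. Ki from Cheng–Prusoff, mean of at least two independent experiments.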

[1] = test system: LN-229 glioblastoma cells; assay: Antiproliferative activity (MTS), LN-229; format: cell-based, human; conditions: Homo sapiens, LN-229; MTS assay, 72 h
Description: (§4) These cell lines were characterized by different mutation profiles, the main one being the variable status of the p53 protein. In detail, U87MG cells have a wild-type p53 protein, while astrocytoma and the rest of GBM cells harbor mutated p53 protein. Additional assays were performed on MCF7 breast cancer and AsPC-1 pancreatic cancer cells. The wide range of tested lines was aimed at screening the anticancer potential of the tested compounds. The first represents one of the most common and the second one of the most aggressive cancers in the world. Comparing the activity of compounds on GBM cells to other types of cancer may reveal their selectivity and usefulness in targeted therapies. The cytotoxicity of the compounds on normal human astrocytes (NHA) and Feline catus astrocyte (PG-4) was determined. Tests on normal lines serve to verify the potential toxicity of the tested compounds on healthy cells. Due to the targeting of CNS tumors, astrocytes were selected as normal lines.
(§5) The detailed procedure is presented in previous publications.[53] […] Cells were cultured in appropriate media, supplemented with FBS, antibiotics, and other supplements, and incubated at 37 °C with 5% CO2. […] Cell viability was assessed using the MTS assay, and the inhibitory concentration (IC50) was calculated using GraphPad Prism 8.0. Each compound was tested in triplicate across multiple experiments.

1321N1 astrocytoma cells = assay: Antiproliferative activity (MTS), 1321N1; format: cell-based, human; conditions: Homo sapiens, 1321-N1; MTS assay
Description: as §4, §5
Supplementary materials - Biological research […]

U-251 glioblastoma cells = assay: Antiproliferative activity (MTS), U-251; format: cell-based, human; conditions: Homo sapiens, U-251; MTS assay, 72 h
Description: as §4, §5

5-HT1A = target: T4, 5-HT1A (Homo sapiens, UniProt P08908); assay: Radioligand binding assay, 5-HT1A ([3H]-8-OHDPAT); conditions: Table 3, unit inferred; 2.5 nM [3H]-8-OHDPAT
T4 construct: expressed in transfected cells; host or cells: HEK293
T4 sequence (P08908 1-422): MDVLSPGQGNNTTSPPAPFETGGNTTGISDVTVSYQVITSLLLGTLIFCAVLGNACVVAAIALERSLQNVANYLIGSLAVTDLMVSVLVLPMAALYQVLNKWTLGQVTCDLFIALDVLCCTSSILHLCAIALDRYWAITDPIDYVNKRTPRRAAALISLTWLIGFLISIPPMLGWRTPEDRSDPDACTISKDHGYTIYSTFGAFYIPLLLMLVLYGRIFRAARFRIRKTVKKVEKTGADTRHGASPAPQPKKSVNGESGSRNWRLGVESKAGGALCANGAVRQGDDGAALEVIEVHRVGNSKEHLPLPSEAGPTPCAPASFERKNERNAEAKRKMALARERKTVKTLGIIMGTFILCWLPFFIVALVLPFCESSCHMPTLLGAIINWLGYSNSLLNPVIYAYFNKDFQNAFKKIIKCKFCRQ
Description: as §1, §2, §3

[2] = Solubility in DMSO and 10% DMSO in PBS buffer; format: physicochemical; conditions: symbols not defined; for Solubility, 10% DMSO, 1 mM: 10% DMSO in PBS buffer
Description: for 24 h. […] The IC50 were calculated as
Table S1. Solubility in DMSO and 10% DMSO in PBS buffer
3. Absorption – PAMPA permeability test
*Permeability coefficient.
**CFN = caffeine, well-permeable control

[3] = test system: normal human astrocytes (NHA); assay: Cytotoxicity (MTS), normal human astrocytes; format: cell-based; conditions: for IC50: Homo sapiens, Astrocyte, 72 h, normal human astrocytes, MTS assay
Description: as §4, with “The chosen group of ligands was further examined for their ability to inhibit proliferation across multiple cancer cell lines related to the CNS system (1321N1, U87MG, LN-229, and U-251). These” for “These”
The detailed procedure is presented in previous publications.[53] Briefly, the study utilized various human cancer and normal cell lines, including LN-229 (glioblastoma), MCF7 (breast carcinoma), HepG2 (hepatoma), U-251 (glioblastoma), U87MG (glioblastoma), AsPC-1 (pancreatic adenocarcinoma), and NHA (normal human astrocytes). Cells were cultured in appropriate media, supplemented with FBS, antibiotics, and other supplements, and incubated at 37 °C with 5% CO2. Compounds were dissolved in DMSO, prepared at various concentrations (1–25 μM), and applied to the cells for 72 h. Cell viability was assessed using the MTS assay, and the inhibitory concentration (IC50) was calculated using GraphPad Prism 8.0. Each compound was tested in triplicate across multiple experiments.

T3 sequence (P50406 whole entry): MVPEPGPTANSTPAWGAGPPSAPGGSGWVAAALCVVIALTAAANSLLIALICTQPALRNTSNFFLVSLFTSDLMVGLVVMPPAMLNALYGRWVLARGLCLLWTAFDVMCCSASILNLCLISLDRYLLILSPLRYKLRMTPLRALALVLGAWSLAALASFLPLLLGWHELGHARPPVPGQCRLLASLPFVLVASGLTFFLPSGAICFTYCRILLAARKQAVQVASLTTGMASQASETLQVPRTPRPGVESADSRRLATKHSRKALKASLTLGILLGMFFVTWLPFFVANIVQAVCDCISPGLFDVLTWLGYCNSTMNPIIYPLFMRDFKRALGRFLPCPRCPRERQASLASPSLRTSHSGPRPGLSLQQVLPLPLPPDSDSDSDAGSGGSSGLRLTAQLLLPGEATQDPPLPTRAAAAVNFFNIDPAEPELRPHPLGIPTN
T1 sequence (P34969 whole entry, species assumed): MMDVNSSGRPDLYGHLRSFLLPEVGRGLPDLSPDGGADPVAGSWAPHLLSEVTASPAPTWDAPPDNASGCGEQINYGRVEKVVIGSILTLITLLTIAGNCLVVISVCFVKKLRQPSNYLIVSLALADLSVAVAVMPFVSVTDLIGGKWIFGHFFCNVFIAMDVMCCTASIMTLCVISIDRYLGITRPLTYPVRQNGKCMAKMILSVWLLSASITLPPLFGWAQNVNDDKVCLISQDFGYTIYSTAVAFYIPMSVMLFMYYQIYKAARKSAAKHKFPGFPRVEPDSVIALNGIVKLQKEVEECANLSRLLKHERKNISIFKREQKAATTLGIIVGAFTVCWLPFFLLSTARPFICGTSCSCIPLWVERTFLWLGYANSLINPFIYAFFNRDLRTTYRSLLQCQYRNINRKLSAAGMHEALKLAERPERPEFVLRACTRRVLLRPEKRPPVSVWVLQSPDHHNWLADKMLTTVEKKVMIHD
T2 sequence (P14416 whole entry): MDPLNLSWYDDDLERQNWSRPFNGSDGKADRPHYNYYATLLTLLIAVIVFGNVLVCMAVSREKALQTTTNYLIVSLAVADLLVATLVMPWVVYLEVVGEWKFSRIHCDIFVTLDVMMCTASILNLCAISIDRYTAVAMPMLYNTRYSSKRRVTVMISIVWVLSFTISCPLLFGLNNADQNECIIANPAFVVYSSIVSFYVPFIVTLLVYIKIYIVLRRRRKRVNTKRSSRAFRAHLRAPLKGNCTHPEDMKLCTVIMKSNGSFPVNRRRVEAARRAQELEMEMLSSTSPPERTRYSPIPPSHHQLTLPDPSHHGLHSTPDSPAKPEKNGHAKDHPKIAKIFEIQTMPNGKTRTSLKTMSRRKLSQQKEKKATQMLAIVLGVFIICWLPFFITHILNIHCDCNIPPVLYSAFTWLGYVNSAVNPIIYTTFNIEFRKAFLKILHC

Ki (5-HT6) | IC50 [1] | IC50 (1321N1 astrocytoma cells) | IC50 (U-251 glioblastoma cells) | Compound | Ki (5-HT7) | Ki (D2) | Ki (5-HT1A) | Solubility, 10% DMSO, 1 mM [2] | Solubility, 100% DMSO, 10 mM [2] | IC50 [3] | selectivity index ([3]; normal astrocytes versus cancer cell lines)
109 ± 27 nM | > 25 µM | 20.9 ± 1.4 µM | > 25 µM | O=S(=O)(c1cccc2ccccc12)N1CCN(CCNC2=Nc3ccccc3CN2)CC1 [PP 6, N-{2-[4-(Naphthalene-1-sulfonyl)piperazin-1-yl]ethyl}-3,4-dihydroquinazolin-2-amine] | 2400 nM | 7.43 µM | 42 nM |  |  |  | 
69 ± 17 nM | > 25 µM | 9.6 ± 1.8 µM | > 25 µM | CC1NC(NCCCCCCNS(=O)(=O)c2c(Cl)ccc3ccccc23)=Nc2ccccc21 (centres unmarked) [PP 13, 2-Chloro-N-{6-[(4-methyl-3,4-dihydroquinazolin-2-yl)amino]hexyl}naphthalene-1-sulfonamide] | 198 nM | 1.9 µM | 19 nM | + + + | + + + | 4.2 ± 0.4 µM | 
272 ± 68 nM | 18.4 ± 1.1 µM | 8.4 ± 1.9 µM | 16.5 ± 1 µM | O=S1(=O)c2cccc3cccc(c23)N1CCCCCCNC1=Nc2ccccc2CN1 [PP 24, 3-{6-[(3,4-Dihydroquinazolin-2-yl)amino]hexyl}-2λ^6-thia-3-azatricyclo[6.3.1.0^4,^12]dodeca-1(11),4(12),5,7,9-pentaene-2,2-dione] |  |  |  | + + + | + + + | 7.9 ± 0.4 µM | below 1

Compound | Ki (5-HT6) | IC50 [1] | IC50 (1321N1 astrocytoma cells) | IC50 (U-251 glioblastoma cells) | Ki (5-HT7) | Ki (D2) | Ki (5-HT1A) | Solubility, 10% DMSO, 1 mM [2] | Solubility, 100% DMSO, 10 mM [2] | IC50 [3] | selectivity index ([3]; normal astrocytes versus cancer cell lines)
CC1NC(NCCCCCCNS(=O)(=O)c2cccc3ccccc23)=Nc2ccccc21 (centres unmarked) [PP 10, N-{6-[(4-Methyl-3,4-dihydroquinazolin-2-yl)amino]hexyl}naphthalene-1-sulfonamide] | 96 ± 22 nM | > 25 µM | 13.4 ± 0.8 µM | > 25 µM | 189 nM | 2.93 µM | 165 nM | + + + | + + + | 12.6 ± 0.4 µM | 
O=S(=O)(NCCCCCCNc1ncc2ccccc2n1)c1cccc2ccccc12 [PP 15, N-{6-[(Quinazolin-2-yl)amino]hexyl}naphthalene-1-sulfonamide] | 42 ± 11 nM | > 25 µM | > 25 µM | > 25 µM | 1560 nM | 71.8 µM | 7160 nM | + + - | + + - |  | 
